Assay results from US7943628B2, “Pyrimidine derivatives” (Pfizer Limited, priority 2005, dated 2011).
Where two headings read alike, the source gives them in different places.

Biological target: T1, histamine H4 receptor (Homo sapiens, UniProt Q9H3N8)
T1 construct: expressed in transfected cells; host or cells: CHO cells
Assay: H4 binding, method 2 ([3H]-histamine binding with Ysi WGA beads on CHO cell membranes)
Conditions: H4 binding, method 2, Ki calculated from IC50 (Cheng-Prussoff)
Procedure: Cell pellets from CHO cells expressing the histamine H4 receptor were homogenised in ice-cold 50 mM Tris-HCl/0.5 mM CaCl2 buffer containing a protease inhibitor cocktail (Roche®, United Kingdom) using a ground glass homogeniser. Homogenates were centrifuged at 48000 g for 30 min at 4° C. The membrane pellet was resuspended in fresh buffer and the centrifugation step was repeated as described above. The membrane pellet was resuspended in 50 mM Tris-HCl in the same volume as the original cell pellet. Aliquots of membrane preparations were stored at −80° C. and were used for [^3H]-Histamine binding experiments.
Cell membranes (15 μg/well) were pre-incubated for 120 min shaking at 4° C. with Ysi WGA beads (250 μg/well) in 50 mM Tris-HCl (pH 7.4) followed by centrifugation at 1500 rpm for 5 minutes and resuspension in 50 mM Tris-HCl (pH 7.4). The membrane/bead mixture (15 μg membrane/250 μg beads well) was incubated for 90 minutes shaking at room temperature with 6.5 nM [2,5-^3H] Histamine dihydrochloride (30-60 Ci/mmol) in 50 mM Tris-HCl (pH 7.4), with or without competing H4 ligands. Non-specific binding was defined with 10 μM JNJ7777120. Bound radiolabel was determined using scintillation counting techniques after 90 minutes.

T1 sequence (Q9H3N8 whole entry): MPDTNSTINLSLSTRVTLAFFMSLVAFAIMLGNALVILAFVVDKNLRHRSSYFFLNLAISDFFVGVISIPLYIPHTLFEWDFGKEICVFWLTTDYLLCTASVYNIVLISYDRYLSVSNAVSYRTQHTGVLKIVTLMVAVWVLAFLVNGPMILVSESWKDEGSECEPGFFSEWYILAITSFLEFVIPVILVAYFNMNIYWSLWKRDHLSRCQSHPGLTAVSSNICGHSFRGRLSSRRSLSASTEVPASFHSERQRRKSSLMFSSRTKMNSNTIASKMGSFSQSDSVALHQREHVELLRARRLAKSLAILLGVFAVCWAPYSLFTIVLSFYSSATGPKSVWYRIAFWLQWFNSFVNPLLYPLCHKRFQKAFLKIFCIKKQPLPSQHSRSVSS

Row | SMILES | Ki (read-out: Method 2 (Ki (nM))) [nM] | Ki (Method 2 (Ki (nM))) [nM]
1 | CC(C)(C)CCNc1cc(N2C[C@H]3CCCN[C@H]3C2)ncn1 (racemic) [Example 328, N-(3,3-Dimethylbutyl)-6-[(4aR*,7aR*)-octahydro-6H-pyrrolo[3,4-b]pyridin-6-yl]pyrimidin-4-amine] | 554 | 
2 | c1nc(NCC2CC2)cc(N2C[C@H]3CCCN[C@H]3C2)n1 (relative stereo) [Example 123, N-(Cyclopropylmethyl)-6-[(4aR*,7aR*)-octahydro-6H-pyrrolo[3,4-b]pyridin-6-yl]pyrimidin-4-amine] | 103 | 
3 | CC(C)CNc1cc(N2C[C@H]3CCCN[C@H]3C2)ncn1 (relative stereo) [Example 125, N-Isobutyl-6-[(4aR*,7aR*)-octahydro-6H-pyrrolo[3,4-b]pyridin-6-yl]pyrimidin-4-amine] | 223 | 
4 | CCNc1cc(N2CC[C@@H](NC)C2)nc(N)n1 [Example 12, N^4-Ethyl-6-[(3R)-3-(methylamino)pyrrolidin-1-yl]pyrimidine-2,4-diamine] | 52.4 | 
5 | CCNc1cc(N2CC[C@@H](NC)C2)ncn1 [Example 13, N-Ethyl-6-[(3R)-3-(methyl-amino)pyrrolidin-1-yl]pyrimidin-4-amine] | 51.8 | 
6 | CN[C@@H]1CCN(c2cc(NCC3CC3)ncn2)C1 [Example 15, N-(Cyclopropylmethyl)-6-[(3R)-3-(methylamino)pyrrolidin-1-yl] pyrimidin-4-amine] | 19.2 | 
7 | CCNc1cc(N2CC[C@H](NC)C2)ncn1 [Example 16, N-Ethyl-6-[(3S)-3-(methyl-amino)pyrrolidin-1-yl] pyrimidin-4-amine] | 1740 | 
8 | CN[C@H]1CCN(c2cc(NCCC(C)(C)C)ncn2)C1 [Example 17, N-(3,3-Dimethylbutyl)-6-[(3S)-3-(methylamino)pyrrolidin-1-yl]pyrimidin-4-amine] | 483 | 
9 | CN(C)[C@@H]1CCN(c2cc(NCCC(C)(C)C)ncn2)C1 [Example 18, 6-[(3R)-3-(Dimethylamino)pyrrolidin-1-yl]-N-(3,3-dimethylbutyl)pyrimidin-4-amine] | 387 | 
10 | CN(C)[C@@H]1CCN(c2cc(NCC3CC3)ncn2)C1 [Example 19, N-(Cyclopropylmethyl)-6-[(3R)-3-(dimethylamino)pyrrolidin-1-yl]pyrimidin-4-amine] | 132 | 
11 | CCNc1cc(N2CC[C@@H](N(C)C)C2)ncn1 [Example 21, 6-[(3R)-3-(Dimethylamino)pyrrolidin-1-yl]-N-ethyl-pyrimidin-4-amine] | 722 | 
12 | CCCNc1cc(N2C[C@H]3CN(C)C[C@H]3C2)nc(N)n1 [Example 34, 6-[(3aR*,6aS*)-5-Methylhexahydropyrrolo[3,4-c]pyrrol-2(1H)-yl]-N^4-propylpyrimidine-2,4-diamine] | 452 | 
13 | CNc1cc(N2C[C@H]3CN(C)C[C@H]3C2)nc(N)n1 [Example 35, N^4-Methyl-6-[(3aR*,6aS*)-5-methylhexahydro-pyrrolo[3,4-c]pyrrol-2(1H)-yl]pyrimidine-2,4-diamine] | 662 | 
14 | CCNc1cc(N2C[C@H]3CN(C)C[C@H]3C2)nc(N)n1 [Example 36, N^4-Ethyl-6-[(3aR*,6aS*)-5-methylhexahydro-pyrrolo[3,4-c]pyrrol-2(1H)-yl]pyrimidine-2,4-diamine] | 1620 | 
15 | CC(C)CNc1cc(N2C[C@H]3CN(C)C[C@H]3C2)nc(N)n1 [Example 37, N^4-Isobutyl-6-[(3aR*,6aS*)-5-methylhexahydro-pyrrolo[3,4-c]pyrrol-2(1H)-yl]pyrimidine-2,4-diamine] | 181 | 
16 | CN1C[C@@H]2CN(c3cc(NCC4CC4)nc(N)n3)C[C@@H]2C1 [Example 38, N^4-(Cyclopropylmethyl)-6-[(3aR*,6aS*)-5-methylhexahydro-pyrrolo[3,4-c]pyrrol-2(1H)-yl]pyrimidine-2,4-diamine] | 128 | 
17 | CN1C[C@@H]2CN(c3cc(NCC(C)(C)C)nc(N)n3)C[C@@H]2C1 [Example 39, N^4-(2,2-Dimethylpropyl)-6-[(3aR*,6aS*)-5-methylhexahydro-pyrrolo[3,4-c]pyrrol-2(1H)-yl]pyrimidine-2,4-diamine] |  | 88.9
18 | CN1C[C@@H]2CN(c3cc(NCCC(C)(C)C)nc(N)n3)C[C@@H]2C1 [Example 40, N^4-(3,3-Dimethylbutyl)-6-[(3aR*,6aS*)-5-methylhexahydro-pyrrolo[3,4-c]pyrrol-2(1H)-yl]pyrimidine-2,4-diamine] | 192 | 
19 | CC(C)CCNc1cc(N2C[C@H]3CN(C)C[C@H]3C2)nc(N)n1 [Example 41, N^4-(3-Methylbutyl)-6-[(3aR*,6aS*)-5-methylhexahydro-pyrrolo[3,4-c]pyrrol-2(1H)-yl]pyrimidine-2,4-diamine] | 202 | 
20 | CN1C[C@@H]2CN(c3cc(NC4CC4)nc(N)n3)C[C@@H]2C1 [Example 42, N^4-Cyclopropyl-6-[(3aR*,6aS*)-5-methylhexahydro-pyrrolo[3,4-c]pyrrol-2(1H)-yl]pyrimidine-2,4-diamine] | 433 | 
21 | CN1C[C@@H]2CN(c3cc(NC4CCC4)nc(N)n3)C[C@@H]2C1 [Example 43, N^4-Cyclobutyl-6-[(3aR*,6aS*)-5-methylhexahydro-pyrrolo[3,4-c]pyrrol-2(1H)-yl]pyrimidine-2,4-diamine] | 236 | 

Row | SMILES | Ki (read-out: Method 2 (Ki (nM))) [nM] | Ki (Method 2 (Ki (nM))) [nM]
22 | CNC1CN(c2cc(NCC3CC3)ncn2)C1 [Example 44, Cyclopropylmethyl-[6-(3-methylamino-azetidin-1-yl)-pyrimidin-4-yl]-amine] | 20.5 | 
23 | CNC1CN(c2cc(NCc3cccc(F)c3)ncn2)C1 [Example 45, (3-Fluoro-benzyl)-[6-(3-methylamino-azetidin-1-yl)-pyrimidin-4-yl]-amine] | 420 | 
24 | CNC1CN(c2cc(NC(C)C)ncn2)C1 [Example 46, N-Isopropyl-6-[3-(methylamino)azetidin-1-yl]pyrimidin-4-amine] | 40.1 | 
25 | CNC1CN(c2cc(NCc3ccc(F)cc3)ncn2)C1 [Example 47, N-(4-Fluorobenzyl)-6-[3-(methylamino)azetidin-1-yl]pyrimidin-4-amine] | 256 | 
26 | CCNc1cc(N2CC(NC)C2)ncn1 [Example 48, N-Ethyl-6-[3-(methylamino)azetidin-1-yl]pyrimidin-4-amine] | 49.7 | 
27 | CNC1CN(c2cc(NCCO)ncn2)C1 [Example 50, 2-({6-[3-(Methylamino)azetidin-1-yl]pyrimidin-4-yl}amino)ethanol] | 279 | 
28 | CNC1CN(c2cc(NCc3ccccc3)ncn2)C1 [Example 51, N-Benzyl-6-[3-(methylamino)azetidin-1-yl]pyrimidin-4-amine] | 161 | 
29 | CNC1CN(c2cc(NCc3ccccc3Cl)ncn2)C1 [Example 52, N-(2-Chlorobenzyl)-6-[3-(methylamino)azetidin-1-yl]pyrimidin-4-amine] | 99.7 | 
30 | CNC1CN(c2cc(N3CCC(C)CC3)ncn2)C1 [Example 53, N-Methyl-1-[6-(4-methylpiperidin-1-yl)pyrimidin-4-yl]azetidin-3-amine] | 1940 | 
31 | CNC1CN(c2cc(NCCOC)ncn2)C1 [Example 54, N-(2-Methoxyethyl)-6-[3-(methylamino)azetidin-1-yl]pyrimidin-4-amine] | 414 | 
32 | CNC1CN(c2cc(NCCC(C)C)ncn2)C1 [Example 55, 6-[3-(Methylamino)azetidin-1-yl]-N-(3-methylbutyl)pyrimidin-4-amine] | 28.9 | 
33 | CNC1CN(c2cc(N3CCCCC3)ncn2)C1 [Example 56, N-Methyl-1-(6-piperidin-1-ylpyrimidin-4-yl)azetidin-3-amine] | 1590 | 
34 | CNC1CN(c2cc(NCC(C)(C)C)ncn2)C1 [Example 57, N-(2,2-Dimethylpropyl)-6-[3-(methylamino)azetidin-1-yl]pyrimidin-4-amine] | 20.3 | 
35 | CNC1CN(c2cc(NCc3cccc(OC)c3)nc(N)n2)C1 [Example 66, N^4-(3-Methoxy-benzyl)-6-(3-methylamino-azetidin-1-yl)-pyrimidine-2,4-diamine] | 61.1 | 
36 | CNc1cc(N2CC(NC)C2)nc(N)n1 [Example 69, N^4-Methyl-6-[3-(methylamino)azetidin-1-yl]pyrimidine-2,4-diamine] | 9.38 | 
37 | CNC1CN(c2cc(NC3CC3)nc(N)n2)C1 [Example 72, N^4-Cyclopropyl-6-[3-(methylamino)azetidin-1-yl]pyrimidine-2,4-diamine] | 11.9 | 
38 | CNC1CN(c2cc(NCc3ccc(OC(F)(F)F)cc3)nc(N)n2)C1 [Example 76, 6-[3-(Methylamino)azetidin-1-yl]-N^4-[4-(trifluoromethoxy)benzyl]pyrimidine-2,4-diamine] | 125 | 
39 | CNC1CN(c2cc(NCc3ccc(C#N)cc3)nc(N)n2)C1 [Example 77, 4-[({2-Amino-6-[3-(methyl-amino)azetidin-1-yl]pyrimidin-4-yl}amino)methyl]benzonitrile] | 255 | 
40 | CNC1CN(c2cc(NCc3ccccc3F)nc(N)n2)C1 [Example 78, N^4-(2-Fluorobenzyl)-6-[3-(methylamino)azetidin-1-yl]pyrimidine-2,4-diamine] | 3.66 | 
41 | CNC1CN(c2cc(NCc3ccccc3)nc(N)n2)C1 [Example 79, N^4-Benzyl-6-[3-(methylamino)azetidin-1-yl]pyrimidine-2,4-diamine] | 11.2 | 
42 | CNC1CN(c2cc(NCc3cccc(C(F)(F)F)c3)nc(N)n2)C1 [Example 80, 6-[3-(Methylamino)azetidin-1-yl]-N^4-[3-(trifluoromethyl)benzyl]pyrimidine-2,4-diamine] | 103 | 
